Test results from publication PMC4456216 (Nature structural & molecular biology, 2015).

Tests used:
[1] = molecular target: CBP KIX domain; test: Isothermal titration calorimetry; parameters: species or system mouse; settings: read-out: Dissociation constant (KD), CBP KIX, ITC, 25°C, 10 mM MES pH 6.5, 50 mM NaCl, CBP KIX titrated into TAD, KD from a representative experiment with standard error for fit to one-site binding model (n = 2 or 3), nd = no detectable binding under experimental conditions
[2] = molecular target: CRY1 CC peptide; test: Isothermal titration calorimetry; parameters: species or system mouse; settings: read-out: Dissociation constant (KD), CRY1 CC, ITC, 25°C, 10 mM MES pH 6.5, 50 mM NaCl, CRY1 CC titrated into TAD, KD from a representative experiment with standard error for fit to one-site binding model (n = 2 or 3), nd = no detectable binding under experimental conditions

Kd [1]: 4.44 ± 0.23 µM
Kd [2]: 19.7 ± 2.57 µM
Substance: BMAL1 619X: BMAL1 TAD truncation mutant that removed the C-terminal seven residues
